# “Also recorded” adds a separate entry of the source.
# Columns and labels:
# Type in all cases: cell-based, human
# [1] = tested on: IL-10-secreting T cells (PBMC); test: IL-10 ELISPOT: frequency of TCR CDR2 peptide-specific cells in PBMC; conditions: for IL-10 response, MS patients versus HC: comparison in words; for frequency of IL-10-secreting T cells: 5 healthy controls; for frequency of IL-10-secreting T cells / frequency of responding cells (IL-10) in HC: single peptide; for frequency of responding cells (IL-10) in HC: healthy controls (HC); for frequency of responding cells (IL-10) in SPMS patient: MS186; for IL-10 response, SPMS patient versus HC: third SPMS patient (MS186), FIG. 4
# Description: (§1) Antigens. Antigens used in the ELISPOT assay included ConA (2 μg/ml) and synthetic TCR peptides (25 μg/ml), including 116 known AV and BV gene products.
# (§2) T cell frequency. To determine antigen-specific T cell frequency by ELISPOT, blood mononuclear cells were separated by Ficoll density gradient centrifugation, resuspended in 2% human AB serum, and aliquotted at 0.5 and 0.25 million cells in triplicate wells of nitrocellulose-coated microtiter plates (Resolution Technologies) pretreated with anti-IFN-γ (Mabtech, Sweden) or anti-IL-10 (PharMingen, San Diego, Calif.) mAb. Peptides, ConA, and medium were added and the plates incubated at 37 C for 24 hours (IFN-γ) or 48 hours (IL-10). Biotin-labeled secondary mAb for each cytokine was added, followed by streptavidin-alkaline phosphatase (Dako Corp., Carpinteria, Calif.) and substrate (BCIP/NBT phosphatase substrate, KPL, Gaithersburg, Md.) to develop optimal blue staining. Cytokine spots were quantified using an AID Immunospot Analyzer (AID, Cleveland, Ohio) equipped with a high resolution lens camera and analytical software designed for use with the AID system. Mean spots/well were calculated for each Ag, and net counts established after subtraction of background (no Ag). The frequency of Ag-specific spot-forming cells per million PBMC was determined from the average net response observed at two different cell concentrations. The mean net frequency+SEM was calculated for MS patients and HC, and differences compared by Student's t test for significance (p<0.05).
# (§3) Preparation of ELISPOT plates. Four flat bottom 96 well plates with nitrocellulose membranes were coated overnight with 4 μg/ml mouse anti-IL-10 monoclonal antibodies (Pharmingen), and an additional 4 plates were coated with 10 μg/ml mouse anti-human INF((Mabtech). Two hours before addition of peptides, plates were washed 3× with sterile PBS, pH 7.2, and blocked for one hour at room temperature with 10% FBS in sterile PBS.
# (§4) Blood processing. Twelve tubes of blood (approximately 120 ml) were collected from healthy controls and MS patients. The blood was immediately separated over a Ficoll gradient by centrifugation for 25 minutes at 2100 rpm at 25 degrees. Peripheral blood mononuclear cells (PBMC) so obtained were washed 3× with cold RPMI and resuspended to 10×10^6 cells per ml.
# (§5) TCR peptide screens. Sterile stocks containing 1 mg/ml peptide were aliquotted among 4 sterile 96 well polypropylene blocks. Blocks were kept refrigerated for up to one month. Precoated and blocked ELIPSOT plates were washed with 1× with blocking solution and 100 μl of stimulation medium was added (5% fetal bovine serum/1% human AB serum/2 mM pyruvate, 2 mM glutamate, and 50 μg/ml penicillin/streptomycin). 10 μl of each peptide was added per well in triplicate wells. Negative control wells contained RPMI, positive control wells contained 2 μg/ml final concentration ConA. To each well human PBMC were added at a density of 2.5×10^5 cells per well in a total of 8 plates ([…]). Plates were incubated for 24 hours for INF-γ ELISPOTs and for 48 hours for IL-10 ELISPOTs.
# (§6) Detection of cytokine producing cells. PBMC were removed from plates by washing with 3× with PBS and 3× with PBS/0.05% Tween, pH 7.6. To each well was added 100 μl of either anti-IFN-γ (1 μg/ml, Mabtech) or anti-IL-10 (2 μg/ml, Pharmingen) and incubated for 4 hours at room temperature in the dark. Plates were washed 4× with PBS/Tween, then 100 μl per well of alkaline-phosphatase-conjugated streptaviden (DAKO) (1:1000 of stock) was added and plates were incubated for 45 minutes at room temperature. Plates were washed 4× with PBS/Tween and 6× with PBS, 1 minute each. 100 μl of BCIP/NBT substrate (KPL laboratories) was added and the color reaction was allowed to develop for 3-7 minutes. Plates were rinsed 3× with distilled water and dried overnight at room temperature.
# (§7) Analysis of ELISPOTS. […]
# [2] = tested on: IFN-γ-secreting T cells (PBMC); test: IFN-γ ELISPOT: frequency of TCR CDR2 peptide-specific cells in PBMC; conditions: for induction of IFN-γ-secreting T cells in HC: 5 HC; for frequency of IFN-γ-secreting cells: 5 healthy controls, mean, single peptide
# Description: as §1, §2, §3, §4, §5, §6, §7
# [3] = tested on: CD4+CD25− T cells; test: Treg assay of antigen-specific CD4+CD25+ T cell lines; conditions: result in words
substance,measurement,setting,value
ALGQGPQFIFQYYEEEERQRG [BV5S2],"IL-10 response, MS patients versus HC",[1],significantly lower; also recorded: significantly reduced frequencies
DLGHGLRLIHYSYGVKDTNKG [BV12S2A2T],induction of IFN-γ-secreting T cells in HC,[2],induced IFN-γ-secreting T cells in all 5 HC
same,IFN-γ recognition by MS patients,[2],poorly recognized
DLGHGLRLIHYSYGVQDTNKG [BV12S2A1T],induction of IFN-γ-secreting T cells in HC,[2],induced IFN-γ-secreting T cells in all 5 HC
same,IFN-γ recognition by MS patients,[2],poorly recognized
KHGEAPVFLMILLKGGEQKGH [AV29S1A2T],frequency of IL-10-secreting T cells,[1]; mean,> 1000 cells/million PBMC
same,frequency of responding cells (IL-10) in MS patients,"[1]; MS patients, mean",> 1500 cells/million
same,frequency of responding cells (IL-10) in HC,[1],about 1000 cells/million
KLEEELKFLVYFQNEELIQKA [BV10S1P],frequency of IFN-γ-secreting cells,[2],minimal frequencies
same,frequency of IL-10-secreting T cells,[1]; mean,> 2000 cells/million PBMC
NQNKEFMLLISFQNEQVLQET [BV19S1P],frequency of IFN-γ-secreting cells,[2],900 cells/million PBMC
SLGQGPEFLIYFQGTGAADDS [BV6S1A1N1],"IL-10 response, MS patients versus HC",[1],significantly lower
same,"IL-10 response, MS patients versus HC",[1]; listed as BV6S1A1N1T,significantly reduced frequencies
SSGEMIFLIYQGSYDQQNATE [ADV6S1A1N1],induction of IFN-γ-secreting T cells in HC,[2],induced IFN-γ-secreting T cells in all 5 HC
same,IFN-γ recognition by MS patients,[2],poorly recognized
Tetanus toxoid,Treg activity of T cell line specific for the antigen,[3],did not have any detectable Treg activity
VLKNEFKFLISFQNENVFDET [BV25S1A1T],frequency of responding cells (IL-10) in SPMS patient,[1],450 cells/million
same,frequency of responding cells (IL-10) in HC,[1],150 cells/million
same,"IL-10 response, SPMS patient versus HC",[1],responded better than HC
YPNQGLQLLLKYTSAATLVKG [AV1S2A1N1T],frequency of responding cells (IL-10) in SPMS patient,[1],300 cells/million
same,frequency of responding cells (IL-10) in two symptomatic RRMS patients,[1]; MS193 and MS74,> 1700 cells/million
same,frequency of responding cells (IL-10) in HC,[1],< 25 cells/million
same,"IL-10 response, SPMS patient versus HC",[1],responded better than HC
